These results are taken from ChEMBL document CHEMBL1649198, “Efflux unbalance in Pseudomonas aeruginosa isolates from cystic fibrosis patients” (2009).

≈ marks a conversion by molar mass, not a printed value. A value given as a limit tells only on which side of the number the result lay.

The test system of assay [1] is Pseudomonas aeruginosa. In words: Antimicrobial activity against Pseudomonas aeruginosa isolate 2716 obtained from cystic fibrosis patient by agar dilution method. In general terms: Agar dilution tests growth on a series of plates holding different concentrations.
Assay [2] concerns Pseudomonas aeruginosa. Kind of assay: Antimicrobial activity against ampicillin- and ticarcillin-resistant Pseudomonas aeruginosa FE60 mutant transformed with pAGH97 carrying mexXY F29S mutant by twofold macrodilution method. Type of assay: functional.
For assay [3], the system named is Pseudomonas aeruginosa. Kind of assay: Antimicrobial activity against Pseudomonas aeruginosa isolate 2858 obtained from cystic fibrosis patient by disk diffusion method. In kind it is functional. A general note: In agar diffusion tests the substance spreads into inoculated agar from a disc or well.
Assay [4] relates to Pseudomonas aeruginosa. Kind of assay: Antimicrobial activity against Pseudomonas aeruginosa isolate 3066 obtained from cystic fibrosis patient by disk diffusion method. Type of assay: functional.
Assay [5] relates to Pseudomonas aeruginosa. Kind of assay: Antimicrobial activity against Pseudomonas aeruginosa isolate 615R obtained from cystic fibrosis patient by disk diffusion method. In kind it is functional.
In assay [6] the test system is Pseudomonas aeruginosa. Kind of assay: Antimicrobial activity against Pseudomonas aeruginosa isolate 2729 obtained from cystic fibrosis patient by disk diffusion method. Type of assay: functional.
The test system of assay [7] is Pseudomonas aeruginosa. In words: Antimicrobial activity against Pseudomonas aeruginosa isolate 2933 obtained from cystic fibrosis patient by disk diffusion method. In kind it is functional.
Assay [8] relates to Pseudomonas aeruginosa. Kind of assay: Antimicrobial activity against Pseudomonas aeruginosa isolate 2998 obtained from cystic fibrosis patient by agar dilution method.
Assay [9] relates to Pseudomonas aeruginosa. In words: Antimicrobial activity against ampicillin- and ticarcillin-resistant Pseudomonas aeruginosa FE60 mutant transformed with pAGH97 carrying mexXY operon by twofold macrodilution method. In kind it is functional.
For assay [10], the system named is Pseudomonas aeruginosa. Kind of assay: Antimicrobial activity against Pseudomonas aeruginosa isolate 2715 obtained from cystic fibrosis patient by agar dilution method.
Assay [11] relates to Pseudomonas aeruginosa. In words: Antimicrobial activity against Pseudomonas aeruginosa isolate 3020R obtained from cystic fibrosis patient by agar dilution method.
For assay [12], the system named is Pseudomonas aeruginosa. Kind of assay: Antimicrobial activity against ampicillin- and ticarcillin-resistant Pseudomonas aeruginosa FE60 mutant transformed with pAGH97 carrying mexXY F1018L mutant by twofold macrodilution method. In kind it is functional.
Assay [13] deals with Pseudomonas aeruginosa. Kind of assay: Antimicrobial activity against Pseudomonas aeruginosa isolate 2804 obtained from cystic fibrosis patient by disk diffusion method. In kind it is functional.
Assay [14] relates to Pseudomonas aeruginosa. In words: Antimicrobial activity against Pseudomonas aeruginosa mutGR1 overexpressing mexXY mutant by twofold macrodilution method. In kind it is functional.
Assay [15] deals with Pseudomonas aeruginosa. In words: Antimicrobial activity against Pseudomonas aeruginosa isolate 2721 obtained from cystic fibrosis patient by agar dilution method.
The test system of assay [16] is Pseudomonas aeruginosa. Kind of assay: Antimicrobial activity against Pseudomonas aeruginosa PAO1 by twofold macrodilution method. Type of assay: functional.
The subject of assay [17] is Pseudomonas aeruginosa. In words: Antimicrobial activity against Pseudomonas aeruginosa isolate 615S obtained from cystic fibrosis patient by disk diffusion method. Type of assay: functional.
Assay [18] deals with Pseudomonas aeruginosa. Kind of assay: Antimicrobial activity against Pseudomonas aeruginosa isolate 3020S obtained from cystic fibrosis patient by disk diffusion method. In kind it is functional.
Assay [19] concerns Pseudomonas aeruginosa. Kind of assay: Antimicrobial activity against mexXY deficient ampicillin- and ticarcillin-resistant Pseudomonas aeruginosa FE60 mutant by twofold macrodilution method. In kind it is functional.
The subject of assay [20] is Pseudomonas aeruginosa. Kind of assay: microbe, parasite or virus in culture. The conditions noted are these: isolate 2716.
Description: Antimicrobial activity against Pseudomonas aeruginosa isolate 2716 expressing inactivated mexB gene by disk diffusion method
The subject of assay [21] is Pseudomonas aeruginosa. In words: Antimicrobial activity against mexXY operon inactivated Pseudomonas aeruginosa PAO1 by twofold macrodilution method. In kind it is functional.
Assay [22] deals with Pseudomonas aeruginosa. Kind of assay: microbe, parasite or virus in culture. The conditions noted are these: isolate 615R.
Description: Antimicrobial activity against Pseudomonas aeruginosa isolate 615R expressing inactivated mexB gene by disk diffusion method
Assay [23] has as its system Pseudomonas aeruginosa. In words: Antimicrobial activity against Pseudomonas aeruginosa isolate 2933 expressing inactivated mexB gene by disk diffusion method. Type of assay: functional.
For assay [24], the system named is Pseudomonas aeruginosa. In words: microbe, parasite or virus in culture. The conditions noted are these: isolate 2729.
Description: Antimicrobial activity against Pseudomonas aeruginosa isolate 2729 expressing inactivated mexB gene by disk diffusion method
The test system of assay [25] is Pseudomonas aeruginosa. Kind of assay: microbe, parasite or virus in culture. The conditions noted are these: isolate 3020S.
Description: Antimicrobial activity against Pseudomonas aeruginosa isolate 3020S expressing inactivated mexB gene by disk diffusion method
Assay [26] has as its system Pseudomonas aeruginosa. In words: microbe, parasite or virus in culture. The conditions noted are these: isolate 3020R.
Description: Antimicrobial activity against Pseudomonas aeruginosa isolate 3020R expressing inactivated mexB gene by disk diffusion method
Assay [27] concerns Pseudomonas aeruginosa. Kind of assay: Antimicrobial activity against Pseudomonas aeruginosa isolate 2998 expressing inactivated mexB gene by disk diffusion method. In kind it is functional.
Assay [28] relates to Pseudomonas aeruginosa. Kind of assay: microbe, parasite or virus in culture. Conditions: isolate 2715.
Description: Antimicrobial activity against Pseudomonas aeruginosa isolate 2715 expressing inactivated mexB gene by disk diffusion method
Assay [29] has as its system Pseudomonas aeruginosa. In words: Antimicrobial activity against Pseudomonas aeruginosa isolate 2721 expressing inactivated mexB gene by disk diffusion method. Type of assay: functional.
The test system of assay [30] is Pseudomonas aeruginosa. Kind of assay: microbe, parasite or virus in culture. Conditions: isolate 3066.
Description: Antimicrobial activity against Pseudomonas aeruginosa isolate 3066 expressing inactivated mexB gene by disk diffusion method

Consider `CO/N=C(\C(=O)N[C@@H]1C(=O)N2C(C(=O)[O-])=C(C[N+]3(C)CCCC3)CS[C@H]12)c1csc(N)n1`, for which the MIC against Pseudomonas aeruginosa [1] worked out at 8 µg/mL (≈ 16.6 µM); against Pseudomonas aeruginosa [2] it was 8 µg/mL (≈ 16.6 µM); in the assay on Pseudomonas aeruginosa [3], 4 µg/mL (≈ 8.32 µM); against Pseudomonas aeruginosa [4], 32 µg/mL (≈ 66.6 µM); with Pseudomonas aeruginosa [5], 4 µg/mL (≈ 8.32 µM); against Pseudomonas aeruginosa [6] it was 8 µg/mL (≈ 16.6 µM). Besides, the MIC in the assay on Pseudomonas aeruginosa [7] was 16 µg/mL (≈ 33.3 µM); against Pseudomonas aeruginosa [8], 8 µg/mL (≈ 16.6 µM); in the assay on Pseudomonas aeruginosa [9] it was 8 µg/mL (≈ 16.6 µM); in the assay with Pseudomonas aeruginosa [10], 16 µg/mL (≈ 33.3 µM); against Pseudomonas aeruginosa [11], 4 µg/mL (≈ 8.32 µM); against Pseudomonas aeruginosa [12], 16 µg/mL (≈ 33.3 µM). Moreover, the MIC was determined as 32 µg/mL (≈ 66.6 µM) in the assay with Pseudomonas aeruginosa [13], 8 µg/mL (≈ 16.6 µM) against Pseudomonas aeruginosa [14] and 8 µg/mL (≈ 16.6 µM) with Pseudomonas aeruginosa [15].

For `NCC[C@H](O)C(=O)N[C@@H]1C[C@H](N)[C@@H](O[C@H]2O[C@H](CN)[C@@H](O)[C@H](O)[C@H]2O)[C@H](O)[C@H]1O[C@H]1O[C@H](CO)[C@@H](O)[C@H](N)[C@H]1O` [AMIKACIN], the MIC with Pseudomonas aeruginosa [1] is 8 µg/mL (≈ 13.7 µM); with Pseudomonas aeruginosa [16] it was 2 µg/mL (≈ 3.42 µM); against Pseudomonas aeruginosa [17] it was 2 µg/mL (≈ 3.42 µM); in the assay on Pseudomonas aeruginosa [2], 4 µg/mL (≈ 6.83 µM); against Pseudomonas aeruginosa [3], 8 µg/mL (≈ 13.7 µM); with Pseudomonas aeruginosa [18], 2 µg/mL (≈ 3.42 µM). Further, the MIC in the assay with Pseudomonas aeruginosa [4] amounted to 128 µg/mL (≈ 219 µM); with Pseudomonas aeruginosa [5], 16 µg/mL (≈ 27.3 µM); against Pseudomonas aeruginosa [6] it was 16 µg/mL (≈ 27.3 µM); in the assay on Pseudomonas aeruginosa [19], 0.5 µg/mL (≈ 0.854 µM); against Pseudomonas aeruginosa [7], 32 µg/mL (≈ 54.6 µM); against Pseudomonas aeruginosa [8], 16 µg/mL (≈ 27.3 µM). Moreover, the MIC against Pseudomonas aeruginosa [9] came out at 4 µg/mL (≈ 6.83 µM); against Pseudomonas aeruginosa [10], 8 µg/mL (≈ 13.7 µM); against Pseudomonas aeruginosa [11], 32 µg/mL (≈ 54.6 µM); in the assay on Pseudomonas aeruginosa [12], 8 µg/mL (≈ 13.7 µM); against Pseudomonas aeruginosa [13] it was 128 µg/mL (≈ 219 µM); in the assay with Pseudomonas aeruginosa [14] it was 8 µg/mL (≈ 13.7 µM). Moreover, in the assay on Pseudomonas aeruginosa [15], the MIC worked out at 32 µg/mL (≈ 54.6 µM).

Regarding `C[C@H]1[C@H](NC(=O)/C(=N\OC(C)(C)C(=O)O)c2csc(N)n2)C(=O)N1S(=O)(=O)O` [AZTREONAM], the MIC came out at 0.25 µg/mL (≈ 0.574 µM) against Pseudomonas aeruginosa [20]; 0.12 µg/mL (≈ 0.276 µM) against Pseudomonas aeruginosa [21]; 0.25 µg/mL (≈ 0.574 µM) in the assay with Pseudomonas aeruginosa [1]; 0.25 µg/mL (≈ 0.574 µM) against Pseudomonas aeruginosa [22]; 0.12 µg/mL (≈ 0.276 µM) against Pseudomonas aeruginosa [17]; 0.12 µg/mL (≈ 0.276 µM) in the assay on Pseudomonas aeruginosa [23]. Further, the MIC with Pseudomonas aeruginosa [3], in the assay with Pseudomonas aeruginosa [4], against Pseudomonas aeruginosa [24], in the assay on Pseudomonas aeruginosa [5], in the assay on Pseudomonas aeruginosa [6] and in the assay on Pseudomonas aeruginosa [25] was 0.25 µg/mL (≈ 0.574 µM) each time. Further, the MIC was found to be 0.25 µg/mL (≈ 0.574 µM) against Pseudomonas aeruginosa [7]; 0.25 µg/mL (≈ 0.574 µM) in the assay with Pseudomonas aeruginosa [26]; 0.12 µg/mL (≈ 0.276 µM) in the assay with Pseudomonas aeruginosa [8]; 0.12 µg/mL (≈ 0.276 µM) against Pseudomonas aeruginosa [27]; 0.5 µg/mL (≈ 1.15 µM) with Pseudomonas aeruginosa [10]; 0.25 µg/mL (≈ 0.574 µM) against Pseudomonas aeruginosa [28]. For the same compound, the MIC in the assay on Pseudomonas aeruginosa [11] stood at 0.25 µg/mL (≈ 0.574 µM); against Pseudomonas aeruginosa [29], 0.12 µg/mL (≈ 0.276 µM); against Pseudomonas aeruginosa [13], 0.25 µg/mL (≈ 0.574 µM); in the assay on Pseudomonas aeruginosa [15], 0.25 µg/mL (≈ 0.574 µM); in the assay on Pseudomonas aeruginosa [30], 0.25 µg/mL (≈ 0.574 µM).

Turning to `CC(C)(O/N=C(\C(=O)N[C@@H]1C(=O)N2C(C(=O)[O-])=C(C[n+]3ccccc3)CS[C@H]12)c1csc(N)n1)C(=O)O` [CEFTAZIDIME], the MIC was 4 µg/mL (≈ 7.32 µM) against Pseudomonas aeruginosa [3]; greater than 8 µg/mL in the assay on Pseudomonas aeruginosa [4]; 0.5 µg/mL (≈ 0.915 µM) in the assay with Pseudomonas aeruginosa [7]; 0.5 µg/mL (≈ 0.915 µM) against Pseudomonas aeruginosa [8]; 2 µg/mL (≈ 3.66 µM) with Pseudomonas aeruginosa [13]; 0.5 µg/mL (≈ 0.915 µM) in the assay with Pseudomonas aeruginosa [15].
